Nine molecules from PubChem BioAssay (NCI) can be followed below.

Some test systems named below: KM12 colon; UO-31 renal; EKVX NSCLC; HT29 colon; SK-MEL-28 melanoma; SR leukemia; HS 578T breast; SF-268 CNS; OVCAR-8 ovarian; SK-MEL-2 melanoma.
Common to all, as to assay: inhibition of tumour cell growth, NCI panel, 48 h

“And” between values parts separate entries of the source, which are not always exact repeats. Equal values may be shown once.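 How tested: cells in 96-well plates exposed to compound for 48 hours at five concentrations. GI50 is the concentration that inhibits growth by half. Definition used: TGI = concentration required for complete inhibition of growth.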

As to `C(=Nc1ccccc1)C1CCCC[N-]1.C(=Nc1ccccc1)C1CCCC[N-]1.[Cu+2].[O-][Cl+3]([O-])([O-])O` (centres undefined), the GI50 in the assay with KM12 colon was 1.07 µM; with UO-31 renal it was 12.6 µM; in the assay with EKVX NSCLC, 19 µM; in the assay on HT29 colon, 15.5 µM; in the assay with SK-MEL-28 melanoma, 20.5 µM; in the assay on SR leukemia it was 1.64 µM. The GI50 in the assay on HS 578T breast is 30.3 µM; in the assay on SF-268 CNS it was 26.9 µM; with OVCAR-8 ovarian it was > 39.7 µM; in the assay with SK-MEL-2 melanoma it was 15.8 µM. Besides, the TGI in the assay with KM12 colon is 22.4 µM; in the assay with UO-31 renal, > 94.3 µM; in the assay with EKVX NSCLC, 58.1 µM; with HT29 colon, 30.8 µM; in the assay on SK-MEL-28 melanoma it was 48.5 µM; in the assay with SR leukemia it was 6.12 µM. For the same molecule, the TGI in the assay on HS 578T breast was > 89.5 µM; in the assay on SF-268 CNS it was > 89.6 µM; in the assay with OVCAR-8 ovarian it was > 95.2 µM; in the assay on SK-MEL-2 melanoma, 40.9 µM.
Turning to `Cc1nc2ccc(CN(C)c3ccc(C(=O)N[C@@H](CCC(=O)O)C(=O)O)s3)cc2c(=O)[nH]1`, the TGI with KM12 colon, in the assay on UO-31 renal, with EKVX NSCLC, in the assay with HT29 colon, in the assay on SK-MEL-28 melanoma and in the assay with SR leukemia was > 100 µM each time. The TGI in the assay on HS 578T breast, with SF-268 CNS, in the assay on OVCAR-8 ovarian and in the assay with SK-MEL-2 melanoma was > 100 µM in each case. Moreover, in the assay on UO-31 renal, the GI50 is < 0.01 µM.
`O=C(O)CSCc1cccc2ccccc12`: the TGI with KM12 colon, in the assay on UO-31 renal, in the assay on EKVX NSCLC, in the assay on HT29 colon, in the assay with SK-MEL-28 melanoma and in the assay with SR leukemia was > 100 µM each time. For the same molecule, the TGI with HS 578T breast, in the assay with SF-268 CNS, in the assay on OVCAR-8 ovarian and in the assay on SK-MEL-2 melanoma was > 100 µM in each case.
Take `CC(C)[C@](O)(c1ccc2cc(OC(F)F)c(OC(F)F)cc2c1)c1cn[nH]n1`: the GI50 in the assay on KM12 colon is 20.3 µM and 15.2 µM; in the assay with UO-31 renal, 12.8 µM and 12.1 µM; with EKVX NSCLC, 14 µM and 13.6 µM; in the assay on HT29 colon, 16 µM and 20.8 µM; in the assay with SK-MEL-28 melanoma it was 18.5 µM and 19.6 µM; in the assay with SR leukemia, 24.7 µM and 12.1 µM. The GI50 in the assay with HS 578T breast is 22.1 µM and 15.4 µM; with SF-268 CNS it was 18.7 µM and 14.4 µM; in the assay on OVCAR-8 ovarian it was 29.6 µM and 26.4 µM; with SK-MEL-2 melanoma, 18.7 µM and 17.1 µM. Further, the TGI in the assay on KM12 colon is 41.7 µM and 31.2 µM; in the assay on UO-31 renal it was 29.1 µM and 30.1 µM; in the assay with EKVX NSCLC, 44.8 µM and 39.9 µM; with HT29 colon, 36.3 µM and 46.6 µM; in the assay with SK-MEL-28 melanoma it was 36.9 µM and 40.8 µM; in the assay with SR leukemia, 56.7 µM and 44.9 µM. Also, the TGI was 82.4 µM and 51.2 µM in the assay with HS 578T breast; 50.3 µM and 34.6 µM with SF-268 CNS; 81.1 µM and 62.5 µM in the assay on OVCAR-8 ovarian; 36.6 µM and 35 µM in the assay with SK-MEL-2 melanoma.
Consider `CC(C)=CCN=C(N)N`, for which the TGI is > 100 µM in the assay with KM12 colon; > 100 µM in the assay with UO-31 renal; > 100 µM in the assay with EKVX NSCLC; > 100 µM in the assay on HT29 colon; > 100 µM with SK-MEL-28 melanoma; 83.6 µM with SR leukemia. The TGI in the assay with HS 578T breast, in the assay with SF-268 CNS, in the assay on OVCAR-8 ovarian and in the assay with SK-MEL-2 melanoma was > 100 µM in each case.
In the case of `COc1cc(/C(Cl)=C/C=C/C(=O)c2c(C)[n+]([O-])c3ccc(Cl)cc3[n+]2[O-])cc(OC)c1OC`, the GI50 in the assay on KM12 colon was 5.07 µM; in the assay on UO-31 renal, 2.63 µM; in the assay on EKVX NSCLC it was 14.2 µM; with HT29 colon, 2.07 µM; with SK-MEL-28 melanoma it was 6.85 µM; in the assay with SR leukemia, 1.47 µM. Besides, the values for the GI50 with HS 578T breast, in the assay on SF-268 CNS and with OVCAR-8 ovarian were 6.47 µM, 5.54 µM and 3.09 µM, respectively. The TGI is > 50 µM in the assay on KM12 colon; 18.7 µM in the assay with UO-31 renal; > 50 µM in the assay on EKVX NSCLC; 9.1 µM with HT29 colon; 49.4 µM in the assay on SK-MEL-28 melanoma; 4.72 µM with SR leukemia. Moreover, the values for the TGI with HS 578T breast, in the assay with SF-268 CNS and with OVCAR-8 ovarian were 35.7 µM, 14.2 µM and > 50 µM, respectively.
Consider `C=C1C(=O)O[C@H]2[C@H]1CC/C(CNC(=O)/C=C/c1ccc(Br)cc1)=C\CC[C@@]1(C)O[C@@H]21`, for which the GI50 is 1.87 µM with KM12 colon; 0.97 µM in the assay with UO-31 renal; 1.46 µM in the assay with EKVX NSCLC; 0.622 µM with HT29 colon; 1.34 µM in the assay with SK-MEL-28 melanoma; 0.255 µM in the assay on SR leukemia. Further, the GI50 with HS 578T breast is 1.44 µM; with SF-268 CNS, 1.78 µM; in the assay on OVCAR-8 ovarian, 1.67 µM; in the assay on SK-MEL-2 melanoma, 1.4 µM. For the same molecule, the TGI in the assay on KM12 colon came out at 3.8 µM; with UO-31 renal, 2.19 µM; with EKVX NSCLC, 2.91 µM; with HT29 colon, 2.66 µM; with SK-MEL-28 melanoma it was 2.7 µM; with HS 578T breast, 4.43 µM. In addition, the TGI in the assay on SF-268 CNS was found to be 4.27 µM; with OVCAR-8 ovarian, 5.75 µM; in the assay with SK-MEL-2 melanoma, 3.02 µM.
Regarding `O=C(Nc1ccc(Cl)cc1Cl)c1ccc(NC2=C(Cl)C(=O)N(Cc3ccccc3)C2=O)cc1`, the GI50 in the assay with KM12 colon was 21.1 µM; in the assay on UO-31 renal, 3.56 µM; in the assay on EKVX NSCLC, 21.7 µM; with SR leukemia, 1.35 µM; with HS 578T breast, 23.5 µM; in the assay on SF-268 CNS, 16.5 µM. Besides, the results for the GI50 in the assay on OVCAR-8 ovarian and with SK-MEL-2 melanoma were 12.8 µM and 54.1 µM, respectively. Further, the TGI in the assay with KM12 colon was 64.4 µM; in the assay with UO-31 renal it was > 100 µM; in the assay with EKVX NSCLC, 46.1 µM; with SR leukemia, 3.12 µM; with HS 578T breast, 47 µM; in the assay on SF-268 CNS, 36.6 µM. For the same molecule, the TGI with OVCAR-8 ovarian was 25.4 µM; in the assay on SK-MEL-2 melanoma it was > 100 µM.
Turning to `CN1CCN(c2ccc(C(=O)Nc3n[nH]c4ccc(Cc5cc(F)cc(F)c5)cc34)c(NC3CCOCC3)c2)CC1`, the GI50 in the assay on KM12 colon was 0.00436 µM; in the assay on UO-31 renal, 1.03 µM and 1.17 µM; in the assay with EKVX NSCLC, 3.07 µM; with HT29 colon, 0.971 µM and 1.06 µM; in the assay with SK-MEL-28 melanoma it was 1.6 µM and 1.58 µM; in the assay on SR leukemia, 0.0734 µM and 0.0312 µM. In addition, the GI50 is 1.23 µM and 1.21 µM in the assay on HS 578T breast; 2.25 µM and 1.45 µM in the assay on SF-268 CNS; 1.73 µM with OVCAR-8 ovarian; 4.5 µM and 1.86 µM in the assay on SK-MEL-2 melanoma. Also, the TGI in the assay with KM12 colon was 1.49 µM and 1.12 µM; in the assay on UO-31 renal, 2.28 µM and 2.61 µM; in the assay with EKVX NSCLC it was > 10 µM; in the assay on HT29 colon it was 3.38 µM and 2.46 µM; in the assay on SK-MEL-28 melanoma, 3.15 µM and 2.95 µM; with SR leukemia, 2.15 µM and 1.69 µM. Also, the TGI in the assay with HS 578T breast was 4.37 µM and 3.22 µM; in the assay with SF-268 CNS, > 10 µM and 2.87 µM; in the assay on OVCAR-8 ovarian it was > 10 µM and 3.48 µM; in the assay with SK-MEL-2 melanoma, > 10 µM and 3.53 µM.
